From patent US20220323406A1, “METHODS AND COMPOSITIONS FOR DIFFERENTIATING STEM CELLS” (Massachusetts Institute of Technology, priority 2019, published 2022)
Structures can show the parent of a compound that is named as a salt.

What was measured:
[1] = system: ENR+CD organoids (ISC to Paneth cell differentiation); test: Primary screen: basal (non-stimulated) lysozyme secretion LYZ.NS, 2.5-D 384-well ENR+CD organoid differentiation; type: cell-based, mouse; conditions: for Dose.FC.LYZ.NS / Z.LYZ.NS (standard z score) / Z.LYZ.NS: primary screen; for Z.LYZ.NS: standard z score
Source text: (§1) High-throughput screening.

[2] = system: ENR+CD organoids (ISC to Paneth cell differentiation); test: Primary screen: CCh-stimulated lysozyme secretion LYZ.S, 2.5-D 384-well ENR+CD organoid differentiation; type: cell-based, mouse; conditions: primary screen
Source text: as §1

[3] = system: ENR+CD organoids (ISC to Paneth cell differentiation); test: Secondary (validation) screen: LYZ.NS basal lysozyme secretion, 2.5-D 384-well ENR+CD organoids; type: cell-based, mouse; conditions: 6-day ENR+CD, vs ENR+CD+DMSO
Procedure: (§2) Drugs were tested at a narrowed dose range around each treatment's identified optimal dose from the primary screen (4× below, 2× above and below).
as §1
(§3) Secondary lysozyme secretion assay screen. Confirmatory secondary screening with primary hits was performed using the above 384-well plate method. The screen was conducted with 4-plate replicates with a base media of ENR+CD. Media was supplemented with compound at day 0 and day 3 (n=8 well replicates per dose) at four different doses: two-fold above, two-fold below, and four-fold below the optimal final dose for each respective treatment. Additionally, each plate carried a large number of ENR+DMSO or ENR+CD+DMSO (vehicle) control wells (n=100 for ATP, and n=25 for LYZ.NS and LYZ.S) for robust normalization. ATP, non-stimulated lysozyme activity and CCh-stimulated lysozyme activity was again measured and the collected data was again processed in a custom R-script, per primary screen with slight modification. Values were log10 transformed, and a plate-wise FC was calculated for each well based on the median value of ENR+CD+DMSO (vehicle) control wells to normalize plate to plate variability.

[4] = system: ENR+CD organoids (ISC to Paneth cell differentiation); test: Secondary (validation) screen: LYZ.S CCh-stimulated lysozyme secretion, 2.5-D 384-well ENR+CD organoids; type: cell-based, mouse; conditions: 6-day ENR+CD, vs ENR+CD+DMSO
Procedure: as §2, §1, §3

ENR+CD organoids [5] = test: Secondary (validation) screen: ATP (CTG) assay, 2.5-D 384-well ENR+CD organoids; type: cell-based, mouse; conditions: 6-day ENR+CD, vs ENR+CD+DMSO
Procedure: as §2, §1, §3

ENR+CD organoids [6] = test: Primary screen: ATP (CellTiter-Glo 3D, CTG) cell number/viability, 2.5-D 384-well ENR+CD organoids; conditions: primary screen;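 also: compounds given at plating and again on day 3 over a 6-day differentiation from ENR+CV stem-cell-enriched precursors, ATP measured on day 6, plate median as control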
[7] = dose 0.08 uM, FC relative to plate median
[8] = dose 0.40 uM, FC relative to plate median
[9] = dose 2.00 uM, FC relative to plate median
[10] = dose 10.00 uM, FC relative to plate median

With `COc1cc(Nc2c(C#N)cnc3cc(OCCCN4CCN(C)CC4)c(OC)cc23)c(Cl)cc1Cl` [Bosutinib (SKI-606), Bosutinib, reference compound] as the compound, how does the Dose.FC.LYZ.NS ([1]; dose 0.08 uM) read?
Its Dose.FC.LYZ.NS is 0.213 log2 fold change.

And the “Z.LYZ.NS (standard z score)” value ([1]; dose 0.08 uM)?
Its value is 1.858.

And the Dose.FC.LYZ.NS ([1]; dose 0.40 uM)?
Its Dose.FC.LYZ.NS is 0.130 log2 fold change.

What about the “Z.LYZ.NS (standard z score)” value ([1]; dose 0.40 uM) of the same compound?
The value was 1.129.

What about the Dose.FC.LYZ.NS ([1]; dose 2.00 uM) of the same compound?
The Dose.FC.LYZ.NS was −0.049 log2 fold change.

What about the “Z.LYZ.NS (standard z score)” value ([1]; dose 2.00 uM) of the same compound?
The value was −0.425.

What about the Dose.FC.LYZ.NS ([1]; dose 10.00 uM) of the same compound?
The Dose.FC.LYZ.NS was −0.115 log2 fold change.

And the “Z.LYZ.NS (standard z score)” value ([1]; dose 10.00 uM)?
Its value is −1.005.

What about the Dose.FC.LYZ.S ([2]; dose 0.08 uM) of the same compound?
Its Dose.FC.LYZ.S is 0.308 log2 fold change.

What about the Dose.FC.LYZ.S ([2]; dose 0.40 uM) of the same compound?
The Dose.FC.LYZ.S was 0.208 log2 fold change.

And the Dose.FC.LYZ.S ([2]; dose 2.00 uM)?
The Dose.FC.LYZ.S was −0.058 log2 fold change.

What about the Dose.FC.LYZ.S ([2]; dose 10.00 uM) of the same compound?
The Dose.FC.LYZ.S was −0.223 log2 fold change.

What about the Dose.FC.LYZ.NS ([3]; 0.02 uM) of the same compound?
Its Dose.FC.LYZ.NS is 0.133 log2 fold change.

And the Dose.FC.LYZ.NS ([3]; 0.04 uM)?
Its Dose.FC.LYZ.NS is −0.067 log2 fold change.

What about the Dose.FC.LYZ.NS ([3]; 0.08 uM) of the same compound?
Its Dose.FC.LYZ.NS is −0.070 log2 fold change.

What about the Dose.FC.LYZ.NS ([3]; […]) of the same compound?
The Dose.FC.LYZ.NS was 0.068 log2 fold change.

What about the Dose.FC.LYZ.S ([4]; 0.02 uM) of the same compound?
Its Dose.FC.LYZ.S is 0.103 log2 fold change.

And the Dose.FC.LYZ.S ([4]; 0.04 uM)?
The Dose.FC.LYZ.S was −0.086 log2 fold change.

And the Dose.FC.LYZ.S ([4]; 0.08 uM)?
The Dose.FC.LYZ.S was −0.072 log2 fold change.

What about the Dose.FC.LYZ.S ([4]; […]) of the same compound?
The Dose.FC.LYZ.S was 0.007 log2 fold change.

What about the Dose.FC.CTG (ENR+CD organoids [5]; 0.02 uM) of the same compound?
Its Dose.FC.CTG is 0.216 log2 fold change.

What about the Dose.FC.CTG (ENR+CD organoids [5]; 0.04 uM) of the same compound?
The Dose.FC.CTG was 0.139 log2 fold change.

And the Dose.FC.CTG (ENR+CD organoids [5]; 0.08 uM)?
The Dose.FC.CTG was 0.082 log2 fold change.

And the Dose.FC.CTG (ENR+CD organoids [5]; […])?
Its Dose.FC.CTG is 0.128 log2 fold change.

What about the Dose.FC.CTG (ENR+CD organoids [6]; dose 0.08 uM) of the same compound?
Its Dose.FC.CTG is 0.628 log2 fold change.

And the Dose.FC.CTG (ENR+CD organoids [6]; dose 0.40 uM)?
Its Dose.FC.CTG is 0.302 log2 fold change.

What about the Dose.FC.CTG (ENR+CD organoids [6]; dose 2.00 uM) of the same compound?
The Dose.FC.CTG was −0.169 log2 fold change.

What about the Dose.FC.CTG (ENR+CD organoids [6]; dose 10.00 uM) of the same compound?
The Dose.FC.CTG was −0.668 log2 fold change.

How did the “primary screen hit call (SSMD and z-scored FC cutoffs in both LYZ assays)” value ([1]; LYZ.NS and LYZ.S, 0.08-10 uM, 6 days ENR+CD) turn out when `C[C@H](NCc1ccc(OCc2cccc(F)c2)cc1)C(N)=O` [Safinamide Mesylate, reference compound] was run?
Its value is “sole hit in their respective pathway”.

And the Dose.FC.LYZ.NS [1, 7]?
The Dose.FC.LYZ.NS was 0.160 log2 fold change.

And the Z.LYZ.NS ([1]; dose 0.08 uM)?
Its Z.LYZ.NS is 1.394.

And the Dose.FC.LYZ.NS [1, 8]?
The Dose.FC.LYZ.NS was 0.093 log2 fold change.

What about the Z.LYZ.NS ([1]; dose 0.40 uM) of the same compound?
Its Z.LYZ.NS is 0.814.

And the Dose.FC.LYZ.NS [1, 9]?
Its Dose.FC.LYZ.NS is 0.174 log2 fold change.

And the Z.LYZ.NS ([1]; dose 2.00 uM)?
The Z.LYZ.NS was 1.518.

What about the Dose.FC.LYZ.NS [1, 10] of the same compound?
Its Dose.FC.LYZ.NS is 0.057 log2 fold change.

And the Z.LYZ.NS ([1]; dose 10.00 uM)?
Its Z.LYZ.NS is 0.499.

And the Dose.FC.LYZ.S [2, 7]?
Its Dose.FC.LYZ.S is 0.302 log2 fold change.

And the Dose.FC.LYZ.S [2, 8]?
The Dose.FC.LYZ.S was 0.191 log2 fold change.

And the Dose.FC.LYZ.S [2, 9]?
The Dose.FC.LYZ.S was 0.236 log2 fold change.

What about the Dose.FC.LYZ.S [2, 10] of the same compound?
Its Dose.FC.LYZ.S is 0.143 log2 fold change.

What about the Dose.FC.LYZ.NS ([3]; 0.50 uM) of the same compound?
Its Dose.FC.LYZ.NS is −0.156 log2 fold change.

What about the Dose.FC.LYZ.NS ([3]; 1.00 uM) of the same compound?
The Dose.FC.LYZ.NS was −0.231 log2 fold change.

What about the Dose.FC.LYZ.NS ([3]; 2.00 uM) of the same compound?
The Dose.FC.LYZ.NS was −0.046 log2 fold change.

And the Dose.FC.LYZ.NS ([3]; 4.00 uM)?
The Dose.FC.LYZ.NS was −0.034 log2 fold change.

What about the Dose.FC.LYZ.S ([4]; 0.50 uM) of the same compound?
Its Dose.FC.LYZ.S is −0.213 log2 fold change.

And the Dose.FC.LYZ.S ([4]; 1.00 uM)?
Its Dose.FC.LYZ.S is −0.294 log2 fold change.

And the Dose.FC.LYZ.S ([4]; 2.00 uM)?
Its Dose.FC.LYZ.S is −0.099 log2 fold change.

What about the Dose.FC.LYZ.S ([4]; 4.00 uM) of the same compound?
The Dose.FC.LYZ.S was −0.086 log2 fold change.

And the Dose.FC.CTG (ENR+CD organoids [5]; 0.50 uM)?
Its Dose.FC.CTG is −0.014 log2 fold change.

What about the Dose.FC.CTG (ENR+CD organoids [5]; 1.00 uM) of the same compound?
The Dose.FC.CTG was −0.082 log2 fold change.

What about the Dose.FC.CTG (ENR+CD organoids [5]; 2.00 uM) of the same compound?
The Dose.FC.CTG was −0.011 log2 fold change.

And the Dose.FC.CTG (ENR+CD organoids [5]; 4.00 uM)?
Its Dose.FC.CTG is −0.002 log2 fold change.

What about the Dose.FC.CTG (ENR+CD organoids [6]; [7]) of the same compound?
The Dose.FC.CTG was 0.265 log2 fold change.

And the Dose.FC.CTG (ENR+CD organoids [6]; [8])?
The Dose.FC.CTG was 0.241 log2 fold change.

And the Dose.FC.CTG (ENR+CD organoids [6]; [9])?
Its Dose.FC.CTG is 0.263 log2 fold change.

What about the Dose.FC.CTG (ENR+CD organoids [6]; [10]) of the same compound?
The Dose.FC.CTG was 0.369 log2 fold change.
